ChEMBL document CHEMBL3400149, “Discovery of novel spiro 1,3,4-thiadiazolines as potent, orally bioavailable and brain penetrant KSP inhibitors” (Bioorg Med Chem, 2015)

What was measured:
[1] = target: T1, Kinesin-like protein KIF11 (Homo sapiens, UniProt P52732); test: Inhibition of KSP in human HCT116 cells assessed as phos-histone H3 level by immunofluorescent assay; type: cell-based, HCT-116
T1 sequence (P52732 whole entry): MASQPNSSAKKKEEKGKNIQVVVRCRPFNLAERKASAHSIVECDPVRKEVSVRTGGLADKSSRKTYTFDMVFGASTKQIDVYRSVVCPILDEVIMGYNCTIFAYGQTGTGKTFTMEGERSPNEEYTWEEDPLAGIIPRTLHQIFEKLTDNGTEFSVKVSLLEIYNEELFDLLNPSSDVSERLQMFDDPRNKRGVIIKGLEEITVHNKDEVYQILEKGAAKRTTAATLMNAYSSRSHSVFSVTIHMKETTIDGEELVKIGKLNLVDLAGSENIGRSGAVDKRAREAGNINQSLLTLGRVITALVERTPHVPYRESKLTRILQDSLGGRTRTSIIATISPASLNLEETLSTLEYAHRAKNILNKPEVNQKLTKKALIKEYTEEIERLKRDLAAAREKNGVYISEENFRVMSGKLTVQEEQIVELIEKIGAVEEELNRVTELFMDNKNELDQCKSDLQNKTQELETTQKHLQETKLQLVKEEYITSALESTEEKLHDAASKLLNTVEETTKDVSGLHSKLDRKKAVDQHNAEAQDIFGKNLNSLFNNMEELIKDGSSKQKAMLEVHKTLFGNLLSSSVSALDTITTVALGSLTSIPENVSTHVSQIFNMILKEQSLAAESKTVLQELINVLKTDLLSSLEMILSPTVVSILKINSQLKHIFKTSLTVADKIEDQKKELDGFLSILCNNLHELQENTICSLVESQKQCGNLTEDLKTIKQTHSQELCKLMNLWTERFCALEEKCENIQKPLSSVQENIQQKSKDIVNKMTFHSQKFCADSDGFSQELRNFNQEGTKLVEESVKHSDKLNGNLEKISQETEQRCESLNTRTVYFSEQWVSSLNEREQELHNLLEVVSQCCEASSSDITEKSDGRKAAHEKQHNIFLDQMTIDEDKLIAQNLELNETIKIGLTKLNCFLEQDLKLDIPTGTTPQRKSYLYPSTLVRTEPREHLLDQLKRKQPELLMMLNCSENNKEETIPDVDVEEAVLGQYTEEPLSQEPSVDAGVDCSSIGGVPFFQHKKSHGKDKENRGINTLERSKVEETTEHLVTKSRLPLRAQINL

[2] = Clearance in CD1 mouse at 5 mg/kg, iv; type: ADME, organism-based; design: dose 5 mg/kg, route intravenous; settings: in vivo
[3] = AUC in Sprague-Dawley rat at 1 mg/kg, iv; type: ADME, organism-based; design: dose 1 mg/kg, route intravenous; settings: plasma
[4] = AUC in CD1 mouse at 10 mg/kg, po; type: ADME, organism-based; design: dose 10 mg/kg, route oral; settings: plasma
[5] = Oral bioavailability in Sprague-Dawley rat at 10 mg/kg; type: ADME, organism-based; settings: in vivo
[6] = Cmax in CD1 mouse at 10 mg/kg, po; type: ADME, organism-based; design: dose 10 mg/kg, route oral; settings: in vivo
[7] = AUC in Sprague-Dawley rat at 10 mg/kg, po; type: ADME, organism-based; design: dose 10 mg/kg, route oral; settings: plasma
[8] = AUC in CD1 mouse at 5 mg/kg, iv; type: ADME, organism-based; design: dose 5 mg/kg, route intravenous; settings: plasma
[9] = Cmax in Sprague-Dawley rat at 10 mg/kg, po; type: ADME, organism-based; design: dose 10 mg/kg, route oral; settings: in vivo
[10] = Clearance in Sprague-Dawley rat at 1 mg/kg, iv; type: ADME, organism-based; design: dose 1 mg/kg, route intravenous; settings: in vivo
[11] = Oral bioavailability in CD1 mouse at 10 mg/kg; type: ADME, organism-based; settings: in vivo
[12] = AUC in beagle dog at 1 mg/kg, iv; type: ADME, organism-based, Canis lupus familiaris; design: dose 1 mg/kg, route intravenous; settings: plasma
[13] = Clearance in beagle dog at 1 mg/kg, iv; type: ADME, organism-based, Canis lupus familiaris; design: dose 1 mg/kg, route intravenous; settings: in vivo
[14] = Cmax in beagle dog at 5 mg/kg, po; type: ADME, organism-based, Canis lupus familiaris; design: dose 5 mg/kg, route oral; settings: in vivo
[15] = Cmax in Sprague-Dawley rat at 5 mg/kg, po; type: ADME, organism-based; design: dose 5 mg/kg, route oral; settings: in vivo
[16] = AUC in beagle dog at 5 mg/kg, po; type: ADME, organism-based, Canis lupus familiaris; design: dose 5 mg/kg, route oral; settings: plasma
[17] = Oral bioavailability in beagle dog at 5 mg/kg; type: ADME, organism-based, Canis lupus familiaris; settings: in vivo
[18] = Oral bioavailability in Sprague-Dawley rat at 5 mg/kg; type: ADME, organism-based; settings: in vivo
[19] = AUC in Sprague-Dawley rat at 5 mg/kg, po; type: ADME, organism-based; design: dose 5 mg/kg, route oral; settings: plasma
[20] = Permeability across apical to basolateral side in human Caco2 cells; type: ADME, cell-based; settings: Caco-2, read-out: permeability
[21] = AUC ratio of drug uptake from brain to plasma in rat; type: ADME
[22] = Antitumor activity against human U373 cells xenografted in mouse assessed as tumor growth inhibition at 5 mg/kg, po q3d measured on day 35; type: functional, U-373MG ATCC; settings: 840 h
[23] = Antitumor activity against human COLO205 cells xenografted in mouse assessed as tumor growth inhibition at 7.5 mg/kg, po q3d measured on day 35; type: functional; settings: COLO 205, 840 h
[24] = Antitumor activity against human U373 cells xenografted in mouse assessed as tumor growth inhibition at 7.5 mg/kg, po q3d measured on day 35; type: functional, U-373MG ATCC; settings: 840 h
[25] = Permeability across basolateral to apical side in human Caco2 cells; type: ADME, cell-based; settings: Caco-2, read-out: permeability
[26] = Oral bioavailability in monkey; type: ADME, organism-based, Macaca mulatta; settings: rhesus monkey, in vivo
[27] = AUC in beagle dog at 10 mg/kg, po; type: ADME, organism-based, Canis lupus familiaris; design: dose 10 mg/kg, route oral; settings: plasma
[28] = AUC ratio of drug uptake from brain to plasma in mouse; type: ADME, organism-based
[29] = Oral bioavailability in beagle dog at 10 mg/kg; type: ADME, organism-based, Canis lupus familiaris; settings: in vivo
[30] = Antitumor activity against human COLO205 cells xenografted in mouse assessed as tumor growth inhibition at 5 mg/kg, po q3d measured on day 35; type: functional; settings: COLO 205, 840 h
[31] = Cmax in beagle dog at 10 mg/kg, po; type: ADME, organism-based, Canis lupus familiaris; design: dose 10 mg/kg, route oral; settings: in vivo

Row | Structure (SMILES) | EC50 [1] [nM] | clearance [2] [mL/min/kg] | AUC [3] [µM·h] | AUC [4] [µM·h] | Cmax [6] [nM] | AUC [8] [µM·h] | clearance [10] [mL/min/kg] | bioavailability [11] [%] | further results
1 | NCCCC(=O)N1N=C(c2cc(F)ccc2F)SC12CCOc1ccccc12 (stereo unspecified) | 338 |  |  |  |  |  |  |  | 
2 | CC(=O)N1N=C(c2cc(F)ccc2F)SC12CCN(C)c1ccccc12 (stereo unspecified) | > 1000 |  |  |  |  |  |  |  | 
3 | CC(=O)N1CCC2(SC(c3cc(F)ccc3F)=NN2C(C)=O)c2ccccc21 (stereo unspecified) | > 1000 |  |  |  |  |  |  |  | 

The next molecules have a lower EC50 [1] than those just listed; values first:

Row | EC50 [1] [nM] | clearance [2] [mL/min/kg] | AUC [3] [µM·h] | AUC [4] [µM·h] | Cmax [6] [nM] | AUC [8] [µM·h] | clearance [10] [mL/min/kg] | bioavailability [11] [%] | Structure (SMILES) | further results
4 | 1 | 76 | 0.37 | 3.3 | 770 | 2.6 | 109 | 64 | CC(=O)N1N=C(c2cc(F)ccc2F)S[C@@]12c1cc(F)ccc1OC[C@H]2CCN | bioavailability [5]: 8%; AUC [7]: 0.15 µM·h; Cmax [9]: 17 nM
5 | 263 |  |  |  |  |  |  |  | CN(C)CCCC(=O)N1N=C(c2cc(F)ccc2F)SC12CCOc1ccccc12 (stereo unspecified) | 
6 | 5 | 29 | 0.8 | 13.4 | 1200 | 6.5 | 50 | 100 | CC(=O)N1N=C(c2cc(F)ccc2F)S[C@@]12c1cc(F)cc(F)c1OC[C@H]2CCN | AUC [12]: 1.9 µM·h; clearance [13]: 20 mL/min/kg; Cmax [14]: 200 nM; Cmax [15]: 180 nM; AUC [16]: 1.7 µM·h; bioavailability [17]: 18%; bioavailability [18]: 44%; AUC [19]: 1.7 µM·h
7 | 3 | 42 | 0.8 | 7.9 | 1030 | 4.6 | 49 | 87 | CC(=O)N1N=C(c2cc(F)ccc2F)S[C@@]12c1cc(F)c(F)cc1OC[C@H]2CCN | Papp A→B [20]: 10.6 ×10⁻⁶ cm/s; AUC [12]: 3.1 µM·h; Kp [21]: 4; clearance [13]: 12 mL/min/kg; inhibition in vivo at 5 mg/kg [22]: 31%; inhibition in vivo at 7.5 mg/kg [23]: 126%; inhibition in vivo at 7.5 mg/kg [24]: 69%; Papp B→A [25]: 11.5 ×10⁻⁶ cm/s; bioavailability [26]: 53%; bioavailability [5]: 64%; AUC [27]: 6.9 µM·h; AUC [7]: 2.5 µM·h; Cmax [9]: 220 nM; Kp [28]: 4; bioavailability [29]: 44%; inhibition in vivo at 5 mg/kg [30]: 116%; Cmax [31]: 500 nM
